Measured values as given in patent US7314729B2, “Methods and kits for transferases” (Promega Corp., priority 2002, dated 2008).

Key:
Assay type in all cases: biochemical
[1] = biological target: T1, catalytic subunit of cAMP-dependent protein kinase (PKA) (Bos taurus, UniProt P00517); experiment: PKA kinase assay with inhibitors (bis-kemptide R110 substrate, Aminopeptidase M, fluorescence); settings: 0.5 units PKA, 5 μM bis-kemptide, 50 μM ATP; FIG. 2
T1 construct: purchased Promega Corp., Madison, Wis
Experimental: The kinase activity of the catalytic subunit of cAMP-dependent protein kinase (PKA) from Promega Corp., Madison, Wis. was tested in triplicate in a 96-well plates using the following reaction components: 40 mM Tris-HCl, pH 7.5, 20 mM MgCl2, 0.1 mg/ml bovine serum albumin (BSA), 50 μM ATP, and 5 μM of LRRASLG (SEQ. ID. NO: 1)-R110—GLSARRL, a bis-rhodamine peptide kinase substrate also known as “bis-kemptide.” The final reaction volume was 50 uL. […] All kinase reactions were incubated at room temperature for 20 minutes.
The kinase reactions were terminated by adding a termination/detection reagent (25 ul) containing 100 mM EDTA and 25 mU aminopeptidase M (Calbiochem, San Diego, Calif.).
Enzymatic activity of the kinase was measured by taking a reading of the fluorescence, at the time of addition of actinonin and 3 hrs later to test the stability of the signal, with an excitation at 480 nm and fluorescence emission at 520-530 nm.
PKA Assay With Inhibitors. The effects of various inhibitors of PKA kinase were tested.
Fluorescence was detected with an excitation of 480 nm and fluorescence emission at 520-530 nm.

[2] = biological target: T2, serine/threonine phosphatase PP2A (Homo sapiens, UniProt P67775); experiment: PP2A phosphatase assay with inhibitors (bis-STP-R110 phosphopeptide, Aminopeptidase M)
T2 construct: purchased Promega (Madison, Wis.)
Experimental: PP2A activity with STP-R-110. The phosphatase activity of phosphatase 2A (PP2A) was carried out in 50 ul volume containing 5 uM of phosphopeptide substrate bis-STP-R110 (RRAT(PO3)VA (SEQ. ID. NO:5)-R110-[…]), 40 mM Tris-HCl, pH 7.5, and 0.1 mg/ml BSA. Phosphatase reactions were initiated by adding the enzyme serine/threonine phosphatase PP2A from Promega (Madison, Wis.). The amount of PP2A added to each reaction was titrated in ½ increments, in a range from 0.0075 ng (0.015 munits) to 7.5 nanograms (15 munits), plus control reactions containing no enzyme. Phosphatase reactions were carried out for 10 minutes at room temperature in 96-well plates.
Phosphatase reactions were terminated with 25 ul of 2 uM okadaic acid ((9,10-Deepithio-9,10-didehydroacanthifolicin) (sodium salt)), a known inhibitor of PP2A. After termination, 25 mU/well of Aminopeptidase M was added in 40 mM Tris buffer, pH 7.5, 0.1 mg/ml BSA. The aminopeptidase reaction was incubated at room temperature, 25° C., for 90 minutes. Fluorescence was read as in Example 1.

[3] = biological target: T3, tyrosine phosphatase PTP-1B (Homo sapiens, UniProt P18031); experiment: PTP-1B phosphatase assay with inhibitors (bis-PTK5p-R110 phosphopeptide, Aminopeptidase M); settings: 25 mU/well PTP-1B, inhibitor zero up to 50 uM; FIG. 10
T3 sequence (P18031 1-435): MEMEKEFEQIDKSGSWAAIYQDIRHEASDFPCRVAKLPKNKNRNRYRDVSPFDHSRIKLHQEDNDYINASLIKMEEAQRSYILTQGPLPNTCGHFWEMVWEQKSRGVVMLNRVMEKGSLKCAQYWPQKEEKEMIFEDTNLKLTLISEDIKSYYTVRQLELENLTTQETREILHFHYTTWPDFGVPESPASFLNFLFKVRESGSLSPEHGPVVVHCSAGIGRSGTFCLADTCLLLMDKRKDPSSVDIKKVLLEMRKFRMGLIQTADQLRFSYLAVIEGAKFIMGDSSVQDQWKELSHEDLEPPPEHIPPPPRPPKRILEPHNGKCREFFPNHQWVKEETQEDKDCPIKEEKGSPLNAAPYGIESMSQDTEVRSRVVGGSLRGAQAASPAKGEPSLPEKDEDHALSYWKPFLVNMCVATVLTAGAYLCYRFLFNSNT
Experimental: The effect of various inhibitors were tested on the dephosphorylation of bis-PTK5p-R110 by the enzyme tyrosine phosphatase PTP-1B. […] Inhibitors were included in the reactions at concentrations ranging from zero inhibitor up to 50 uM. Phosphatase reactions were initiated by adding PTB-1B, which was added to each reaction at 25 mU/well. Control reactions containing no enzyme were also run.
Phosphatase reactions were terminated with 25 ul of a solution of Na3VO4 and 25 mU/well of Aminopeptidase M. Reactions were incubated at room temperature for 60 minutes.

T2 sequence (P67775 whole entry): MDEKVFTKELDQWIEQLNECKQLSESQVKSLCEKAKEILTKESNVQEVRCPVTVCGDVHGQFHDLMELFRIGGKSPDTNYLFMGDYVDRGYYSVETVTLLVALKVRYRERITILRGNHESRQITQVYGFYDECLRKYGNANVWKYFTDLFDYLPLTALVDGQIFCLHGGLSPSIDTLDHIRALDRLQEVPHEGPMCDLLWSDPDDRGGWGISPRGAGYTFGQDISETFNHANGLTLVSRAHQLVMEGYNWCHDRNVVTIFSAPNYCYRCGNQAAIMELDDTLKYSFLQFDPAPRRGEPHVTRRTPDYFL

effect on kinase activity of PKA (fluorescence output with increasing inhibitor concentration) [1]	Compound	inhibition of dephosphorylation of bis-PTK5p-R110 by PTP-1B [3]	further results
without effect	CC1CNCCN1S(=O)(=O)c1cccc2cnccc12 (stereo not drawn) [H7, 1-(5-isoquinolinesulfonyl)-2-methylpiperzine]		
without effect	N#CC(=C(N)Sc1ccccc1N)C(C#N)=C(N)Sc1ccccc1N [U0126, 1,4-diamino-2,3-dicyano-1,4-bis-(2-aminophenylthio)butadiene]		
	C=C1[C@@H](O)[C@@H]2O[C@]3(CC[C@H](/C=C/[C@@H](C)[C@@H]4CC(C)=C[C@@]5(O[C@H](C[C@@](C)(O)C(=O)O)CC[C@H]5O)O4)O3)CC[C@H]2O[C@@H]1[C@@H](O)C[C@H](C)[C@H]1O[C@@]2(CCCCO2)CC[C@H]1C [okadaic acid, 9,10-Deepithio-9,10-didehydroacanthifolicin]		IC50 [2]: < 1 nM; inhibition of dephosphorylation of the substrate by PP2A ([2]; 2 nanograms PP2A (4 munits), 5 uM phosphopeptide substrate, inhibitor zero up to 100 nM, FIG. 7): inhibited
	CN[C@@H]1C[C@H]2O[C@@](C)([C@@H]1OC)n1c3ccccc3c3c4c(c5c6ccccc6n2c5c31)C(=O)NC4 [staurosporin, (9S-(9α,10,11β,13α)-2,3,10,11,12,13-Hexahydro-10-methoxy-9-methyl-[1-(methylamino)-epoxy-1H,9H-diindolo[1,2,3-gh:3′,2′,1′-1m]pyrrolo{3,4-j]][1,7]benzodiazonin-1-one)]	had no effect	
	Sodium vanadate [Na3VO4]	inhibition of PTP 1B enzyme activity	
